Experimental data as given in patent US12662530B2, “Anti-ADM-antibodies binding to the free N-terminus for accelerated transition of ADM-Gly to bio-ADM in patients with ADM-Gly/ bio-ADM ratio above a threshold and combination with vitamin C” (SphingoTec GmbH, priority 2020, dated 2026).

How the values were obtained:
septic patients = conditions: intravenous; placebo group 46%; cited from earlier work
native PAM = test: ADM maturation activity (AMA) of native PAM in Li-Heparin plasma with antibody and varying L-ascorbate; assay type: biochemical, human
Protocol: A serial antibody-dilution with concentrations of 0, 5, 10, 50, 100, 500 and 3000 μg/mL per well, respectively (in 20 μl) were pipetted into 96-well micro-titer plates. Then 160 μl PAM reaction buffer (100 mM Tris-HCl, 6.25 μM CuSO4, 62.5 μM amastatin, 250 μM leupeptin, 36 ng/mL ADM-Gly) with varying L-ascorbate concentrations was added to the wells and incubated for 15 min. Afterwards the reaction was started by addition of 20 μl of Li-Heparin plasma, containing native PAM Immediately after addition of plasma, 100 μl from each well were removed and inactivated by addition of EDTA (20 mM final concentration) to generate a t=0 minutes reaction point. Inactivated and non-inactivated samples were incubated for 40 minutes at 37° C. and the reaction in non-inactivated samples was stopped as described above. For quantification of produced ADM-NH2 the Sphingotest® bio-ADM Kit (Weber et al. 2017) was utilized according to manufacturer's manual. The ADM maturation activity (AMA) was calculated according to equation 1 (DF=dilution factor of sample matrix).

O=C1O[C@H]([C@@H](O)CO)C(O)=C1O [ascorbate, L-ascorbic acid, reference compound]
mortality at day 28 (septic patients): ~30% | effect on ADM maturation activities (native PAM; ascorbate in the range of 0.4-2 mM, FIG. 15): led to increasing ADM maturation activities | activity optimum of the amidating reaction (ascorbate concentration) (native PAM; with and without HAM8101): 0.8 to 2 mM
